Assay: recombinant UMI read abundance after kanamycin selection (control-corrected) (log10(CPM+1)); higher = more efficient recombination; extreme values may be limits of the assay; sequences stand for … in AGTGCAGAGAAAATCGGCCAGTTTTCTCTGCCTGCAGTCCGCATGCCGTGGGACCCCTTGGGTTCTAACCTGTTGCCTAGATTTATGCAGCGGACTGCCTTTCTCCCAAAGTGATAAACCGG…AGGTTGGTTTCACT; site = the 11-nt donor
Procedure, shortened: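 Sequenced counts of recombinant UMIs were turned into CPM, averaged across replicates and scaled with control-derived factors. The reported figure is log10(CPM+1). Those UMIs, each 12 nt long, tagged donor and donor-binding-loop pairs on a plasmid with a promoterless kanamycin gene, screened as a pool in Escherichia coli with IPTG (0.07 mM) plus kanamycin or without selection.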
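Further: IS621 bridge recombinase in Escherichia coli cells against a fixed T5 target plasmid.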

Sequence | recombinant UMI read abundance (log10)
GCTACGGCATGGACCGGTTTTCCCGGTAATCCGTATTTGCC (site GCTACAGCTGG) | 0
GCTACGGCATGGACCGGTTTTCCCGGTAATCCGTATTTGCC (site GCTACCGCTGG) | 0
GCTACGGCATGGACCGGTTTTCCCGGTAATCCGTATTTGCC (site GCTACGGCTGG) | 0.761
GCTACGGCATGGACCGGTTTTCCCGGTAATCCGTATTTGCC (site GCTACTGCTGG) | 0
GCTACTACATGGACCGGTTTTCCCGGTAATCCGTATTTGCC (site GCTACTACTGG) | 0
GCTACTACATGGACCGGTTTTCCCGGTAATCCGTATTTGCC (site GCTACTCCTGG) | 0
GCTACTACATGGACCGGTTTTCCCGGTAATCCGTATTTGCC (site GCTACTGCTGG) | 0
GCTACTACATGGACCGGTTTTCCCGGTAATCCGTATTTGCC (site GCTACTTCTGG) | 0
GCTACTGCATGGACCGGTTTTCCCGGTAATCCGTATTTGAC (site GCTACTGCTGA) | 0
GCTACTGCATGGACCGGTTTTCCCGGTAATCCGTATTTGAC (site GCTACTGCTGC) | 0
GCTACTGCATGGACCGGTTTTCCCGGTAATCCGTATTTGAC (site GCTACTGCTGG) | 0
GCTACTGCATGGACCGGTTTTCCCGGTAATCCGTATTTGAC (site GCTACTGCTGT) | 2.07
GCTACTTCATGGACCGGTTTTCCCGGTAATCCGTATTTGCC (site GCTACTACTGG) | 0
GCTACTTCATGGACCGGTTTTCCCGGTAATCCGTATTTGCC (site GCTACTCCTGG) | 0
GCTACTTCATGGACCGGTTTTCCCGGTAATCCGTATTTGCC (site GCTACTGCTGG) | 0
GCTACTTCATGGACCGGTTTTCCCGGTAATCCGTATTTGCC (site GCTACTTCTGG) | 1.34
GCTAGAGCATGGACCGGTTTTCCCGGTAATCCGTATTTGTA (site GCTAGAGCTTA) | 2.58
GCTAGGGCATGGACCGGTTTTCCCGGTAATCCGTATTTGTT (site GCTAGGGCTAA) | 1.53
GCTCGCCCATGGACCGGTTTTCCCGGTAATCCGTATTTGAT (site GCTAGCCCTAT) | 0.0115

Sequence | recombinant UMI read abundance (log10)
GCTCGCCCATGGACCGGTTTTCCCGGTAATCCGTATTTGAT (site GCTCGCCCTAT) | 0.567
GCTCGCCCATGGACCGGTTTTCCCGGTAATCCGTATTTGAT (site GCTGGCCCTAT) | 0.019
GCTCGCCCATGGACCGGTTTTCCCGGTAATCCGTATTTGAT (site GCTTGCCCTAT) | 0.00792
GCTCGTACATGGACCGGTTTTCCCGGTAATCCGTATTTGAT (site GCTCGTACTAT) | 1.1
GCTCTGCCATGGACCGGTTTTCCCGGTAATCCGTATTTGCG (site GCTCTGCCTCG) | 0.0154
GCTGCAGCATGGACCGGTTTTCCCGGTAATCCGTATTTGTC (site GCTGCAGCTGA) | 2.59
GCTGGAACATGGACCGGTTTTCCCGGTAATCCGTATTTGAC (site GCTGGAACTGT) | 1.62
GCTGTGTCATGGACCGGTTTTCCCGGTAATCCGTATTTGGA (site GCTGTGTCTTC) | 1.46
GCTTAGACATGGACCGGTTTTCCCGGTAATCCGTATTTGGC (site GCTTAGACTGC) | 2.37
GCTTCCCCATGGACCGGTTTTCCCGGTAATCCGTATTTGAT (site GCTTACCCTAT) | 0.0108
GCTTCCCCATGGACCGGTTTTCCCGGTAATCCGTATTTGAT (site GCTTCCCCTAT) | 0.569
GCTTCCCCATGGACCGGTTTTCCCGGTAATCCGTATTTGAT (site GCTTGCCCTAT) | 0.00758
GCTTCCCCATGGACCGGTTTTCCCGGTAATCCGTATTTGAT (site GCTTTCCCTAT) | 0.028
GCTTCCCCATGGACCGGTTTTCCCGGTAATCCGTATTTGCA (site GCTTCCCCTTG) | 1.15
GCTTCTGCATGGACCGGTTTTCCCGGTAATCCGTATTTGCC (site GCTACTGCTGG) | 0.647
GCTTCTGCATGGACCGGTTTTCCCGGTAATCCGTATTTGCC (site GCTCCTGCTGG) | 1.82
GCTTCTGCATGGACCGGTTTTCCCGGTAATCCGTATTTGCC (site GCTGCTGCTGG) | 0
GCTTCTGCATGGACCGGTTTTCCCGGTAATCCGTATTTGCC (site GCTTCTGCTGG) | 1.86
GCTTGCCCATGGACCGGTTTTCCCGGTAATCCGTATTTGGT (site GCTTGCCCTAA) | 0.00835

Sequence | recombinant UMI read abundance (log10)
GCTTGCCCATGGACCGGTTTTCCCGGTAATCCGTATTTGGT (site GCTTGCCCTAC) | 0.017
GCTTGCCCATGGACCGGTTTTCCCGGTAATCCGTATTTGGT (site GCTTGCCCTAG) | 0
GCTTGCCCATGGACCGGTTTTCCCGGTAATCCGTATTTGGT (site GCTTGCCCTAT) | 0
GCTTTACCATGGACCGGTTTTCCCGGTAATCCGTATTTGTT (site GCTTTACCTAA) | 0.0408
GCTTTAGCATGGACCGGTTTTCCCGGTAATCCGTATTTGTT (site GCTTTAGCTAA) | 0.00318
GGAAATCCATGGACCGGTTTTCCCGGTAATCCGTATTTGAA (site GGAAATCCTTT) | 0.994
GGAAATCCATGGACCGGTTTTCCCGGTAATCCGTATTTGAA (site GGCAATCCTTT) | 0
GGAAATCCATGGACCGGTTTTCCCGGTAATCCGTATTTGAA (site GGGAATCCTTT) | 0
GGAAATCCATGGACCGGTTTTCCCGGTAATCCGTATTTGAA (site GGTAATCCTTT) | 0
GGAAATCCATGGACCGGTTTTCCCGGTAATCCGTATTTGGT (site GGAAATCCTAC) | 0
GGAACGGCATGGACCGGTTTTCCCGGTAATCCGTATTTGGA (site GGAACGGCTTC) | 1.09
GGAAGCTCATGGACCGGTTTTCCCGGTAATCCGTATTTGTT (site GGAAGCTCTAA) | 2.26
GGAATGGCATGGACCGGTTTTCCCGGTAATCCGTATTTGGT (site GGAATGGCTAC) | 1.5
GGAATGGCATGGACCGGTTTTCCCGGTAATCCGTATTTGGT (site GGACTGGCTAC) | 0.00772
GGAATGGCATGGACCGGTTTTCCCGGTAATCCGTATTTGGT (site GGAGTGGCTAC) | 0.00394
GGAATGGCATGGACCGGTTTTCCCGGTAATCCGTATTTGGT (site GGATTGGCTAC) | 0.00922
GGAATTGCATGGACCGGTTTTCCCGGTAATCCGTATTTGCC (site GGAATTGCTGG) | 0
GGACACGCATGGACCGGTTTTCCCGGTAATCCGTATTTGCT (site GGACACGCTAG) | 2.59
GGACAGACATGGACCGGTTTTCCCGGTAATCCGTATTTGCC (site GGAAAGACTGG) | 0

Reference: the supplement of paper PMC11208160
